Usually melting point stands for the temperature of the solid-liquid transition.

Molecule `N#CC(C(=O)c1ccc(-c2ccc(Cl)cc2)cc1)=C1CCCCN1` gave a melting point of 134 °C.
`O=S(=O)(c1ccc2c(Cl)cccc2c1)N1CC2CC1CO2` (centres undefined) registered a melting point of 132 to 133 °C.
To `CN1C(=O)C(c2ccc(OC(F)F)cc2)(c2cccc(OCCC=C(F)F)c2)N=C1N` (centres undefined) belongs 127 to 128 °C; to `CC1=NNC(=O)C1(C)Cl` (centres undefined), 56 °C.
For `CCCCCc1nc(O)c(-c2ccccc2)s1`, the melting point was in the range of 128 to 130 °C.
With `COc1cc2nc(-c3n[nH]cc3NC(=O)N(C)C)[nH]c2cc1Cl` the figure was greater than 300 °C; with `Nc1ccc2c(=O)n3c(nc2c1)C(=Cc1ccccc1Cl)CC3`, 275 to 280 °C; with `COc1c(Cl)ccc(C2=NC(C)(C)CO2)c1SC`, 50 to 52 °C.
To `O=C(CCc1ccccc1)Nc1cc(-c2ccccc2)[nH]n1` belongs 168 to 170 °C; to `CCOC(=O)c1ccc(-c2cccc(CNC=O)n2)cc1`, 120 °C; to `CCOc1ccc(-c2c(C(=O)OC)c(C(=O)OC)c(O)c3cc(OC)c(OC)c(OC)c23)cc1OC`, 159 °C.
Regarding `Cn1cc(C(=O)O)c(=O)c2c3cc(N4CCCC(C)(C)C4)c(F)cc3ncc21`, the melting point lay in the range of 292 to 295 °C.
To `COc1cc(-c2cnc3[nH]cc(C(=O)NC4CCCOC4)c3n2)cc(OC)c1OC` (centres undefined) belongs 191 to 192 °C.
Consider `CC(C)[Si](C)(C)CCCSCCNC(=O)n1cc(F)c(=O)[nH]c1=O`, for which the melting point fell in the range of 113 to 114 °C.
To `CC(C)(C)c1cc(Nc2cccc(OCC(=O)O)c2)cc(C(C)(C)C)c1O` belongs 127 to 128 °C; to `CCOc1ncc(S(=O)(=O)N2CCN(CC)CC2)cc1-c1nc2c(CC)n(CCOC)nc2c(=O)[nH]1`, 158 to 160 °C; to `CCC(O)(c1cccc(O)c1)c1nccs1` (centres undefined), 145 to 146 °C.
To `O=C(Cc1ccccc1)N[C@@H]1C(=O)N2C[C@@H](O)CS[C@H]12` belongs 166 to 167 °C.
`CCN(CC)C(=O)COc1nc(-c2ccccc2)nc2ccccc12` had a melting point of 113 °C.
`COc1ccc2cc(CNCc3ccccc3)ccc2c1`: the melting point lay within 45 to 53 °C.
To `COc1ccc2c(c1)CN(C)C(=O)C2c1cc(Cl)cc(Cl)c1` (centres undefined) belongs 163 to 165 °C; to `COc1cc(O)c2c(=O)c(OC(C)C)c(-c3ccc(O)c(OC)c3)oc2c1`, 169 to 171 °C.
With `COc1ccc(CNc2nc(Cl)cc(Cn3c(C(=O)c4cc(C)cc(C#N)c4)c(C(C)C)c(=O)[nH]c3=O)n2)cc1` the figure was 337 to 338 °C; with `N#Cc1cccc(CSc2nnc(-c3ccn4ncnc4c3)o2)c1`, 196 to 197 °C.
With `O=C1N(CCCCN2CCN(c3cn(-c4ccc(F)cc4)c4ccccc34)CC2)CSC12CCCCC2` the figure was 134 to 136 °C; with `Cc1cc(C)n(-c2nc(Nc3ccc(-c4ccccc4)cc3)c3ccccc3n2)n1`, 268 to 270 °C.
`COc1ccccc1N1CCC(CNCC2COc3cccc(O)c3O2)CC1` (centres undefined) gave a melting point of 116 to 119 °C.
To `CCOC(=O)COc1ccc(OCc2ccccc2)cc1C(Nc1ccc(C(N)=S)cc1)C(=O)OCC` (racemic) belongs 166 °C; to `Cc1nn(-c2cc(OC(C)C)c(Cl)cc2F)c(C)c1N`, 94 to 96.5 °C; to `COc1c(Cc2ccccc2)cc(C(=O)O)c2ccccc12`, 146 to 148 °C.
With `O=C1Nc2ccccc2SC1c1ccccc1Cl` (centres undefined) the figure was 200 °C.
`NC(=O)/C=C1/c2cc(F)ccc2CC1O` (centres undefined) yielded a melting point of 201 to 202 °C.
With `COc1cccc(C(=O)Nc2nnn[nH]2)c1N` the figure was 268 to 269 °C; with `CCOC(=O)Cn1c(C(=O)NCc2nnc(C)n2-c2sc(C)cc2C(=O)c2ccccc2Cl)cc2ccccc21`, 153 to 154 °C.
With `CCN1CCc2ccc(Nc3ncc(C(F)(F)F)c(Nc4ccccc4C(=O)NC)n3)cc2CC1` the figure was 226 °C; with `COc1ccc(C2CCNCC2)cc1OC`, 98 to 100 °C.
With `CC(O)c1ccc(-c2ccc(OCc3ccccc3)cc2)cc1` (single isomer, unassigned; (+)) the figure was 158 to 159 °C.
`ON=Cc1cc2c(cn1)[nH]c1ccccc12` came in with a melting point of 157 to 159 °C.
With `CC(C)c1cc(C(=O)Nc2ccc(C(=O)O)nc2)oc1C(C)C` the figure was 106 to 108 °C; with `NS(=O)(=O)c1ccc(C(=O)c2ccc(O)cc2)s1`, 183 to 190 °C; with `COC(=O)N1CCC(C(C(N)=O)(c2ccc(F)cc2)c2ccc(F)cc2)CC1`, 126 to 129 °C.
To `COC(=O)c1ccc(CBr)c(OCC(=O)c2ccc(OC)c(C34CC5CC(CC(C5)C3)C4)c2)c1` belongs 165 °C; to `CS(=O)(=O)c1ccc(C2=C(Br)C(=O)C3(CCCCC3)O2)cc1`, 163 to 164 °C; to `CCS(=O)(=O)Cc1cccc(-c2nc(=O)c3ccccc3s2)n1`, 188 to 190 °C.
To `CN(C)Nc1nc(Cl)nc2c1ncn2C1OC(CCl)C(O)C1O` (centres undefined) belongs 188 to 189 °C; to `Cn1sc(=O)n(C)c1=O`, 64 to 65 °C; to `Nc1cc(Cl)ccc1C(=O)NO`, 131 to 133 °C.
Take `COc1cc2ncc(C#N)c(Nc3ccc(C)cc3)c2cc1OC`: the melting point was in the range of 128 to 130 °C.
For `CCOc1ccccc1O[C@@H](c1ccccc1)[C@@H](CO[Si](C)(C)C)OS(C)(=O)=O` (racemic), the melting point fell in the range of 80 to 82.5 °C.
To `CCC(=O)N(C(=O)CC)c1c(C#N)cnn1-c1ccc(Cl)c(Cl)c1Cl` belongs 133 to 134 °C; to `O=CNC(c1cccc(Cl)c1)c1ccnc2ccccc12` (centres undefined), 136 °C.
To `Cn1c(C(F)(F)F)cc(=O)n(-c2ccc(Cl)c(C3OCCCO3)c2)c1=O` belongs 87 to 92 °C.
With `CCCC(=O)Nc1n[nH]c2c(F)c(C(F)(F)F)ccc12` the figure was 220 to 222 °C; with `COc1ccc(F)cc1C(C)(C)CC(O)(Cn1ncc(=O)c2ccccc21)C(F)(F)F` (centres undefined), 122 to 123 °C; with `CCOC(=O)Cn1c(=O)c(=O)[nH]c2cc(C(F)(F)F)c(N)cc21`, greater than 250 °C.
In turn, `O=[N+]([O-])c1cc(O)c(F)cc1Cl` showed a melting point of 85 to 86 °C.
To `CCCCCS(=O)(=O)NC/C=C/c1ccc(OCCOC)cc1Oc1ncc(C(F)(F)F)cc1Cl` belongs 106 °C; to `CCOC(=O)CCCCn1c(=O)[nH]c2ccc(O)cc2c1=O`, 105 to 107 °C.
With `CC1NC(=O)NN=C1c1ccc(Cl)cc1` (centres undefined) the figure was 221 to 222 °C.
With `Cc1ccc(S(=O)(=O)N2[C@@H](C#N)CC[C@H]2c2ccc(F)cc2)cc1` (racemic) the figure was 128 °C; with `OC1Cc2cccc(-c3ccccc3)c2C1` (single isomer, unassigned; (+)), 100 to 101 °C; with `C=C(C)c1ccc(C2C(C(=O)c3ccc(C(C)C)cc3)=C(O)C(=O)N2c2ccc(C)nn2)cc1` (centres undefined), 274 °C.
Regarding `CCOC(=O)CCc1ccc(OCCCc2cn(-c3ccc(C(F)(F)F)cn3)nc2OCC)cc1OCc1ccccc1`, the melting point lay in the range of 80 to 81 °C.
For `CCOC(=O)/C=C(/c1ccc(OC)cc1)c1cc(C)cc(Cl)c1`, the melting point fell in the range of 83 to 85 °C.
With `Nc1ccc2[nH]cc(C3=CCN4CCCC4C3)c2c1` (centres undefined) the figure was 208 to 210 °C; with `CCCCc1nn2cc(C(=O)OCC)ccc2c1C(=O)c1ccc(Br)cc1`, less than 50 °C; with `CC1C(=O)Nc2c(C(=O)c3ccc(Cl)cc3)cccc21` (centres undefined), 130 to 140 °C.
To `O=C(O)c1ccc(NC(=O)c2ccc(-c3ccccc3)cc2)cc1` belongs greater than 320 °C; to `COc1ccc(-c2ccc(C(=O)Nc3ccc4cc(CN5CCCC5)cnc4c3C)cn2)cc1`, 180 to 182 °C.
To `CNC(=O)c1ccnc(N2CCN(Cc3ccc(F)cc3)C2=O)c1` belongs 118 to 120 °C; to `CCOC(=O)N1CCC(NC(=S)Nc2cncnc2NCc2ccco2)CC1`, 193 °C.
For `CC1(C)OC(C=Cc2ccnc3ccccc23)=CC1=O`, the melting point lay in the range of 117 to 118 °C.
With `c1ccc2c(CC3CCCCC3)c[nH]c2c1` the figure was 71 to 73 °C; with `C/C(=C(\C#N)C(N)=S)N1CCCN(c2ccccc2)CC1`, 151 to 153 °C.
`COc1cc(C(O)C#Cc2c(C)nc(N)nc2N)cc(OC)c1OC` (centres undefined) showed a melting point of 174 to 176 °C.
With `Cn1ncc(C(=O)N2CCCC2)c1C(=O)Nc1ccn2nc(-c3cccnc3)nc2c1` the figure was 226 to 228 °C; with `COC(=O)C(Cc1ccc(OCc2ccccc2)cc1)N1CC(N2C(=O)c3ccccc3C2=O)C1=O` (centres undefined), 147 to 148 °C; with `CCOc1cc(Cl)nc(Sc2ccc(C)cc2)n1`, 94 to 97 °C.
To `CCCC(=O)Oc1ccc(S(=O)(=O)CS(N)(=O)=O)cc1` belongs 160 to 161 °C; to `CCOC(=O)C(=CNc1ccc(OCC)nc1)C(=O)OCC`, 68 to 71 °C; to `COc1ccc(OCC(O)CN2CCN(c3ccccc3C(=O)O)CC2)c(C(C)(C)C)c1` (centres undefined), 171 to 172 °C.
To `COc1cc(NC(=O)OCc2ccccc2)c(Cl)cc1-c1n[nH]c(=O)o1` belongs 214 °C; to `CCCCC[C@H]1CC[C@H](CC(=O)c2ccc(-c3ccc(CC)cc3F)cc2)CC1`, 72 to 73 °C; to `c1csc(-c2nc(CCCOc3ccc(CCCn4ccnc4)cc3)co2)c1`, 99 to 100 °C.
With `O=C(c1cccc2nc3n(c12)CCCN3c1ccc(Cl)cc1Cl)N1CC(O)C1`, the melting point was 257 to 258 °C.
With `COc1ccc(/C(=C/C=C/C(=O)Oc2ccc([N+](=O)[O-])cc2)C2CCCCC2)cc1` the figure was 117 to 119 °C; with `CCOC(=O)CCc1nc(-c2ccccc2)cc2ccccc12`, 60 °C.
To `Cc1cc(C2N(c3ccccc3)CCN2c2ccccc2)cc(Cl)c1O` belongs 146 to 147 °C; to `CCOC(=O)c1ccc(-n2nc(C(F)(F)F)cc2-c2ccc(S(C)(=O)=O)cc2)cc1`, 159 to 161 °C.

Source of the values: a melting point compilation (Tetko et al.; mined from patent text by program, amines drawn as free bases though some values may be those of a salt).
